Assay [1] has as its target T1, human orexin 1 receptors (Homo sapiens, UniProt O43613).
T1 sequence (O43613 1-425): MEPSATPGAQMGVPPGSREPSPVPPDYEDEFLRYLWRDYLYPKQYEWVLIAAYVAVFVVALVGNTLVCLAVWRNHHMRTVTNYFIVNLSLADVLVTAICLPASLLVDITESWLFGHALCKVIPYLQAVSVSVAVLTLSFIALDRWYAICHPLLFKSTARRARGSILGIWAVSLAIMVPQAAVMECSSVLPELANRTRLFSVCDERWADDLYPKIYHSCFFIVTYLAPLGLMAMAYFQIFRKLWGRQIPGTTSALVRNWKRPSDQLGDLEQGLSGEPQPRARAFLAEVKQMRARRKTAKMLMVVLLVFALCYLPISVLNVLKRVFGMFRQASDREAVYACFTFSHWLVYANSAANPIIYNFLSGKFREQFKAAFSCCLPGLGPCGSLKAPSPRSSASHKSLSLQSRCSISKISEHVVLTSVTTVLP
The assay is described as follows: Radioligand binding assay ([3H]-SB649868 competition), hOx1R. The settings on record: competition with about 1 nM [3H]-SB649868; CHO or HEK cell membranes expressing human orexin 1 receptor. In a few lines: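 Membranes from hOx1R-expressing cells incubated 1 h at room temperature with about 1 nM [3H]-SB649868 and test compound, in triplicate. Buffer was 10 mM HEPES pH 7.5, 0.5% BSA, 5 mM MgCl2, 1 mM CaCl2, 0.05% tween; 10 μM almorexant defined non-specific binding. Filtration then counting of bound radioactivity; values reported as Kd.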

Assay [2] addresses T2, human orexin 2 receptors (Homo sapiens, UniProt O43614).
T2 sequence (O43614 1-444): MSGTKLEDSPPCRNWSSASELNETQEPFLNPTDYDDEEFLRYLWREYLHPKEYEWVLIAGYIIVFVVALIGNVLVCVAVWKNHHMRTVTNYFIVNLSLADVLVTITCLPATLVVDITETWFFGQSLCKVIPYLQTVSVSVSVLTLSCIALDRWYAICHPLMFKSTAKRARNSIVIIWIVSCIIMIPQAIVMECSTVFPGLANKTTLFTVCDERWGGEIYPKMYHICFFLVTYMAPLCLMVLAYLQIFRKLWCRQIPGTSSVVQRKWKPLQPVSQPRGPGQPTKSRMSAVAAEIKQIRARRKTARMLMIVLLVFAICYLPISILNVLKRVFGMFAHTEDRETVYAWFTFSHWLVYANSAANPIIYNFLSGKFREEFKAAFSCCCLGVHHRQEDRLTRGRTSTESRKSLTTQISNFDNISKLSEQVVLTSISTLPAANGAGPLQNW
The assay is described as follows: Calcium accumulation in cells (FLIPR), hOx2R. It counts as cell-based. The settings on record: cells expressing human orexin 2 receptor; inhibition of orexin A-induced calcium accumulation; Cheng and Prusoff correction.

Assay [3] deals with T2, human orexin 2 receptors. The assay can be described thus: Radioligand binding assay ([3H]-SB649868 competition), hOx2R. In short, it runs like this:
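Membranes were incubated 1 h at room temperature in 10 mM HEPES pH 7.5 with 0.5% BSA, 5 mM MgCl2, 1 mM CaCl2 and 0.05% Tween, with about 1 nM [3H]-SB649868 and test compounds in triplicate. Non-specific binding was defined with 10 μM almorexant, and bound radioactivity was counted.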

Assay [4] addresses T1, human orexin 1 receptors. The assay is described as follows: Calcium accumulation in cells (FLIPR), hOx1R.
[5] abbreviates: competition with about 1 nM [3H]-SB649868, CHO or HEK cell membranes expressing human orexin 2 receptor, read-out: binding hOx2R Kd.

Read-outs that look alike come from different tables or passages of the source.

Usually Kd stands for the concentration at which binding is half-saturated. By Ki is commonly meant a dissociation constant, usually derived from enzyme kinetics or from competition with a known ligand.

In the case of `Cc1cc(C)nc(N2CCC3(CCCN(Cc4ccccc4-c4ncco4)C3=O)CC2)n1` [Example 93, 9-(4,6-dimethylpyrimidin-2-yl)-2-(2-(oxazol-2-yl)benzyl)-2,9-diazaspiro[5.5]undecan-1-one], the Kd in assay [1] was found to be 4130 nM; in assay [3] (setting [5]), 91 nM. In addition, the figures for the Ki in assay [2] and in assay [4] were 16 nM and 1400 nM, respectively.
Take `Cc1ccnc(N2CCC3(CCCC(=O)N3Cc3cccc4[nH]c(C)cc34)CC2)n1` [Example 96, 1-((2-methyl-1H-indol-4-yl)methyl)-9-(4-methylpyrimidin-2-yl)-1,9-diazaspiro[5.5]undecan-2-one]: the dissociation constant Kd in assay [1] amounted to 1940 nM; in assay [3] (setting [5]) it was 90 nM. The Ki in assay [2] is 18 nM; in assay [4] it was 866 nM.
For `Cc1nc(N2CCC3(CCCN(Cc4c[nH]c5ccccc45)C3=O)CC2)ncc1F` [Example 102, 2-((1H-indol-3-yl)methyl)-9-(5-fluoro-4-methylpyrimidin-2-yl)-2,9-diazaspiro[5.5]undecan-1-one], the Kd in assay [1] was 1160 nM; in assay [3] (setting [5]) it was 59 nM. The figures for the Ki in assay [2] and in assay [4] were 40 nM and 1070 nM, respectively.
The corresponding values for `Cc1cc(C)nc(N2CCC3(CCCN(Cc4c[nH]c5c(C)cccc45)C3=O)CC2)n1` [Example 103, 9-(4,6-dimethylpyrimidin-2-yl)-2-((7-methyl-1H-indol-3-yl)methyl)-2,9-diazaspiro[5.5]undecan-1-one] are 1770 nM, 35 nM, 26 nM and 1900 nM.
For `Cc1ccc2[nH]cc(CN3CCCC4(CCN(c5nc(C)cc(C)n5)CC4)C3=O)c2c1` [Example 104, 9-(4,6-dimethylpyrimidin-2-yl)-2-((5-methyl-1H-indol-3-yl)methyl)-2,9-diazaspiro[5.5]undecan-1-one] the same measures were 1020 nM, 25 nM, 4.8 nM and 292 nM.
The corresponding values for `Cc1cc(C)nc(N2CCC3(CCCN(Cc4c[nH]c5ccc(C#N)cc45)C3=O)CC2)n1` [Example 105, 3-((9-(4,6-dimethylpyrimidin-2-yl)-1-oxo-2,9-diazaspiro[5.5]undecan-2-yl)methyl)-1H-indole-5-carbonitrile] are 655 nM, 25 nM, 3.3 nM and 295 nM.
On to `Cc1cc(C)nc(N2CCC3(CCCN(Cc4n[nH]cc4-c4ccccc4)C3=O)CC2)n1` [Example 106, 9-(4,6-dimethylpyrimidin-2-yl)-2-((4-phenyl-1H-pyrazol-3-yl)methyl)-2,9-diazaspiro[5.5]undecan-1-one], for which the Kd in assay [1] was 1830 nM; in assay [3] (setting [5]) it was 49 nM. The Ki in assay [2] was 3.3 nM; in assay [4] it was 763 nM.
On to `Cc1cc(C)nc(N2CCC3(CCCN(Cc4nn(C)cc4-c4ccccc4)C3=O)CC2)n1` [Example 107, 9-(4,6-dimethylpyrimidin-2-yl)-2-((1-methyl-4-phenyl-1H-pyrazol-3-yl)methyl)-2,9-diazaspiro[5.5]undecan-1-one], for which the Kd is 2250 nM in assay [1] and 166 nM in assay [3] (setting [5]). Also, the Ki in assay [2] came to 20 nM; in assay [4], 833 nM.
For `Cc1cc(C)nc(N2CCC3(CCCN(Cc4nc(C)oc4-c4ccccc4)C3=O)CC2)n1` [Example 108, 9-(4,6-dimethylpyrimidin-2-yl)-2-((2-methyl-5-phenyloxazol-4-yl)methyl)-2,9-diazaspiro[5.5]undecan-1-one] the same measures were 852 nM, 72 nM, 18 nM and 507 nM.
The corresponding values for `Cc1cc(C)nc(N2CCC3(CCCN(Cc4nc(C)sc4-c4ccccc4)C3=O)CC2)n1` [Example 109, 9-(4,6-dimethylpyrimidin-2-yl)-2-((2-methyl-5-phenylthiazol-4-yl)methyl)-2,9-diazaspiro[5.5]undecan-1-one] are 2560 nM, 188 nM, 42 nM and 1370 nM.
As to `COc1cccc(-c2sc(C)nc2CN2CCCC3(CCN(c4nc(C)cc(C)n4)CC3)C2=O)c1` [Example 110, 9-(4,6-dimethylpyrimidin-2-yl)-2-((5-(3-methoxyphenyl)-2-methylthiazol-4-yl)methyl)-2,9-diazaspiro[5.5]undecan-1-one], the Kd in assay [1] came to 236 nM; in assay [3] (setting [5]) it was 7 nM. Moreover, the Ki came out at 3.8 nM in assay [2] and 213 nM in assay [4].
The corresponding values for `CCc1cc(C)nc(N2CCC3(CCCN(Cc4c[nH]c5ccccc45)C3=O)CC2)n1` [Example 111, 2-((1H-indol-3-yl)methyl)-9-(4-ethyl-6-methylpyrimidin-2-yl)-2,9-diazaspiro[5.5]undecan-1-one] are 835 nM, 44 nM, 11 nM and 761 nM.
The corresponding values for `COc1cc(C)nc(N2CCC3(CCCN(Cc4n[nH]c5ccccc45)C3=O)CC2)n1` [Example 112, 2-((1H-indazol-3-yl)methyl)-9-(4-methoxy-6-methylpyrimidin-2-yl)-2,9-diazaspiro[5.5]undecan-1-one] are 912 nM, 82 nM, 6.1 nM and 255 nM.
For `Cc1cc(N(C)C)nc(N2CCC3(CCCN(Cc4c[nH]c5ccccc45)C3=O)CC2)n1` [Example 113, 2-((1H-indol-3-yl)methyl)-9-(4-(dimethylamino)-6-methylpyrimidin-2-yl)-2,9-diazaspiro[5.5]undecan-1-one] the same measures were 389 nM, 28 nM, 21 nM and 1430 nM.
Regarding `COc1ccnc(N2CCC3(CCCN(Cc4ccccc4-c4nc(C)no4)C3=O)CC2)n1` [Example 114, 9-(4-methoxypyrimidin-2-yl)-2-(2-(3-methyl-1,2,4-oxadiazol-5-yl)benzyl)-2,9-diazaspiro[5.5]undecan-1-one], the Kd is 2140 nM in assay [1] and 231 nM in assay [3] (setting [5]). The values for the Ki in assay [2] and in assay [4] were 30 nM and 1530 nM, respectively.
The corresponding values for `COCc1ccc2[nH]cc(CN3CCCC4(CCN(c5nc(C)cc(C)n5)CC4)C3=O)c2c1` [Example 116, 9-(4,6-dimethylpyrimidin-2-yl)-2-((5-(methoxymethyl)-1H-indol-3-yl)methyl)-2,9-diazaspiro[5.5]undecan-1-one] are 94 nM, 2 nM, 0.3 nM and 33 nM.
For `Cc1cc(C)nc(N2CCC3(CCCN(Cc4c[nH]c5ccc(-n6cccn6)cc45)C3=O)CC2)n1` [Example 117, 2-((5-(1H-pyrazol-1-yl)-1H-indol-3-yl)methyl)-9-(4,6-dimethylpyrimidin-2-yl)-2,9-diazaspiro[5.5]undecan-1-one] the same measures were 1020 nM, 27 nM, 1.3 nM and 37 nM.
For `Cc1cc(C)nc(N2CCC3(CCCN(Cc4nn(C)nc4Br)C3=O)CC2)n1` [Example 118, 2-((5-bromo-2-methyl-2H-1,2,3-triazol-4-yl)methyl)-9-(4,6-dimethylpyrimidin-2-yl)-2,9-diazaspiro[5.5]undecan-1-one] the same measures were 2110 nM, 178 nM, 79 nM and 3580 nM.
Regarding `COCc1cccc(-c2nn(C)nc2CN2CCCC3(CCN(c4nc(C)cc(C)n4)CC3)C2=O)c1` [Example 119, 9-(4,6-dimethylpyrimidin-2-yl)-2-((5-(3-(methoxymethyl)phenyl)-2-methyl-2H-1,2,3-triazol-4-yl)methyl)-2,9-diazaspiro[5.5]undecan-1-one], the results for the Kd in assay [1] and in assay [3] were 1330 nM and 28 nM, respectively. Moreover, the values for the Ki in assay [2] and in assay [4] were 3.9 nM and 868 nM, respectively.
